Experimental data taken from US12171745B2, “Compositions and methods for treating non-hemorrhagic closed head injury” (Boulder BioScience LLC, priority 2022, dated 2024).

Key:
[1] = tested on: Moderate-to-Severe TBI in the Sprague Dawley Rat; test: Extracellular Vesicle (EV) isolation and measurement after lateral fluid percussion TBI; format: in vivo; details: plasma EVs 1 day post-surgery, NTA
Excerpt: (§1) Evaluation of 3,3′-diindolylmethane (DIM) in a clinically relevant animal model of Traumatic Brain Injury (TBI) utilized the Lateral Fluid Percussion (LFP) brain injury method. LFP is the most established and frequently used method for evaluating mixed focal and diffuse brain injury (Thompson H J, Lifshitz J, Marklund N, Grady M S, Graham D I, Hovda D A, McIntosh T K. Lateral fluid percussion brain injury: a 15-year review and evaluation. J Neurotrauma. 2005 January; 22(1):42-75.). Using rats, the parasagittal LFP model recreates the physiological, pathological, and neurobehavioral sequela of TBI in humans. […] Over the days following surgery, rats were assessed for sensorimotor deficits, associative learning and memory, cortical and hippocampal edema, Extracellular Vesicle (EV) levels, and histopathological damage. […]
(§2) Approximately 12-24 h after the preparation surgery, the rats were anesthetized with 3% isoflurane, 70% nitrous oxide and 30% oxygen, intubated, connected to a respirator, and ventilated to be maintained on 1-3% isoflurane in a mixture of 70% nitrous oxide and oxygen. […] Following administration of pancuronium, TBI DIM Premix and Vehicle group rats inspired oxygen was reduced to 21% to maintain blood pO2 levels at approximately 85-95 mmHg. pCO2 levels were monitored to remain at physiological levels of 34 to 46 mmHg. […]

[2] = tested on: Moderate-to-Severe TBI in the Sprague Dawley Rat; test: Histology analysis (H&E, NeuN) after lateral fluid percussion TBI; format: in vivo; details: 10 days post FPI
Excerpt: as §1, §2

[3] = Eur. J. Pharmacol. 2022; 919:174812; cited from earlier work
[4] = Clin. Cancer Res. 10:5233-5241 (2004); cited from earlier work
[5] = Solubility of aripiprazole in the SMEDDS DIM formulation

In the case of c1ccc2c(Cc3c[nH]c4ccccc34)c[nH]c2c1 [DIM, 3,3′-diindolylmethane], the “EV concentration (numbers)” value ([1]; versus TBI Vehicle, p=0.0415) was “prevented the significant increase in EV numbers”, the EV particle size ([1]; versus untreated TBI animals, p=0.0117) was “maintenance of a larger EV particle size” and the “Animals with cortical contusion absent” value [2] was 50%. For the same compound, the Anti-thrombotic activity [3] was “anti-thrombotic activity” and the Bleeding time [3] was “prolong bleeding time”.

In the case of OCc1c[nH]c2ccccc12 [indole-3-carbinol], the Conversion in vivo [4] is given as “converts to DIM and LTR in vivo”.

For O=C1CCc2ccc(OCCCCN3CCN(c4cccc(Cl)c4Cl)CC3)cc2N1 [aripiprazole], the “Solubility of the aripiprazole in the SMEDDS DIM formulation” value [5] was “approximately 1.5%”, the “Dissolution of aripiprazole in SMEDDS DIM, observation” value (shortened to “Dissolution of aripiprazole”) ([5]; 1.2% (10 mg aripiprazole, 0.81 grams SMEDDS DIM), stored overnight, warmed to about 35 degrees C.) was “all had dissolved” and the “Aripiprazole still in suspension” value ([5]; 2.0% (10 mg aripiprazole, 0.49 grams SMEDDS DIM)) was “less than 2 mg”. For the same compound, the “Dissolution of aripiprazole” value ([5]; 2.0% (10 mg aripiprazole, 0.49 grams SMEDDS DIM), stored overnight, warmed to about 35 degrees C.) was “had not quite dissolved”, the “Dissolution of aripiprazole” value ([5]; 5.0% (25 mg aripiprazole, 0.475 grams SMEDDS DIM)) was “white solids clearly present” and the “Dissolution of aripiprazole” value ([5]; 10% (50 mg aripiprazole, 0.45 grams SMEDDS DIM)) was “white solids clearly present”. The “Dose of aripiprazole that can be dissolved” value ([5]; in standard dose of 100 mg DIM contained in 825 mg of the SMEDDS DIM) was “up to 10 mg”.
